Measured values from paper PMC6766518 (Physiological Reports, 2019).
Read-outs that look alike come from different tables or passages of the source. Each block holds one compound with its values, some of them ahead of it.

Legend:
PTHR1 = target: T1, PTHR1 (Homo sapiens, UniProt Q03431); experiment: PathHunter eXpress PTHR1 CHO-K1 β-arrestin GPCR assay (β-arrestin recruitment); assay type: cell-based; conditions: CHO‐K1 cells; abaloparatide vs teriparatide; P = 0.02
T1 sequence (Q03431 27-593): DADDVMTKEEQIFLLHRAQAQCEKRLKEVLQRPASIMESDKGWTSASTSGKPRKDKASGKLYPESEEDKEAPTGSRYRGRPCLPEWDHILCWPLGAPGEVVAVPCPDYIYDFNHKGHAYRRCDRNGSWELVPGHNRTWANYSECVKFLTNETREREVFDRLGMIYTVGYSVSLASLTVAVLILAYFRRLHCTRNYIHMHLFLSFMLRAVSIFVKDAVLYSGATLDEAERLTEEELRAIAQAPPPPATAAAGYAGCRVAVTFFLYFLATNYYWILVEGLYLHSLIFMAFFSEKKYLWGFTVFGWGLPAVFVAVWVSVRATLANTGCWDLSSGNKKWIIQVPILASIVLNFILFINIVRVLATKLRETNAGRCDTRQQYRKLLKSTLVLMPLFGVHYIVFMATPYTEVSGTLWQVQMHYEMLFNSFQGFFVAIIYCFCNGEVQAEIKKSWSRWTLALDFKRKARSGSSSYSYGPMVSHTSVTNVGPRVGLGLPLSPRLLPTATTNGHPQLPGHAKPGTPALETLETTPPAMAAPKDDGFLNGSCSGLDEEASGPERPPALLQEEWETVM

patients = conditions: cited from earlier work
[1] = target: T2, PTHR1 (MC3T3‐E1 osteoblast cell line) (Mus musculus, UniProt P41593); experiment: Intracellular cAMP generation in MC3T3-E1 osteoblast cells; assay type: cell-based
T2 construct: host or cells: MC3T3-E1 subclone 4
T2 sequence (P41593 27-591): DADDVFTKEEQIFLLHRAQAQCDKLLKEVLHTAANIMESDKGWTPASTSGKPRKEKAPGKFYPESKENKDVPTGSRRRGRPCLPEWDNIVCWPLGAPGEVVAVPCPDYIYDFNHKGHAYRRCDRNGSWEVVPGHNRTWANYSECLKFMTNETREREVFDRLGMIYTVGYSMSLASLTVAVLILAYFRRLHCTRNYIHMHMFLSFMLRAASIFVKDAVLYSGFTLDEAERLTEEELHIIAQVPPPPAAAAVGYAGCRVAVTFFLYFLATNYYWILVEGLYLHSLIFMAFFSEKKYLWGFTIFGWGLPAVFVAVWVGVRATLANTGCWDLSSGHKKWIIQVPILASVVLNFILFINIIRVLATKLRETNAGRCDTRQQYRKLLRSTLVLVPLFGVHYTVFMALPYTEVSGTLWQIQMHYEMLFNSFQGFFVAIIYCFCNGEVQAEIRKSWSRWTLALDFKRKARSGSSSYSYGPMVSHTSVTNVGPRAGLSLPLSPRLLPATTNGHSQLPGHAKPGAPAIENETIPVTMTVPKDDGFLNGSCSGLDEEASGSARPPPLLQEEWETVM

[2] = system: patients with osteoporosis; conditions: ref Neer et al. 2001, cited from earlier work
Excerpt: Human life expectancy has increased, thanks to the advances in medical research and the subsequent improvement in health care. As a result, there is a growing demand for better management of the common illnesses of the increasing elderly population. One of these illnesses, osteoporosis, is a common world‐wide bone disorder and a major public health threat for 44 million Americans, 68% of them being women. Osteoporosis accounts for an estimated 1.5 million fractures in the US every year costing over 14 billion dollars. Furthermore, the National Osteoporosis Foundation estimates that 50% of wome ...

RANKL gene expression = conditions: in vivo and in vitro; ref Ricarte et al. 2018; cited from earlier work
Excerpt: PTHR1 is a member of subclass B seven transmembrane spanning GTP‐binding protein (G‐protein) coupled receptors (GPCR) that activates multiple G‐proteins, primarily the Gs but also Gq/11, Gi, and G12/13 G‐proteins. As a result, PTHR1 activation stimulates multiple downstream pathways and events such as Gs/adenylate cyclase/cAMP/protein kinase A, Gq11/phospholipase C/diacylglycerol‐inositol‐triphosphate‐Ca/protein kinase C, phospholipase D, and Src/β‐arrestin/MAPK pathways and PTHR1 phosphorylation and internalization (Abou‐Samra et al. 1992; Sneddon et al. 2000; Tawfeek et al. 2001; Tawfeek et ...

[3] = system: female C57BL/6J mice (serum Ca^2+ and Pi); experiment: Serum Ca2+ and Pi, colorimetric; conditions: 80 µg/kg/day SC, 30 days; 24 h after last injection; vs vehicle; N = 5 mice/group
Method: All animal procedures were reviewed and approved by the Institutional Animal Care and Use Committee at James J. Peters Veterans Affairs Medical Center. […] No peptide injection was performed on the day of animal sacrifice.
Blood was collected and serum was separated as described above. Serum Ca^2+ and Pi concentrations were measured using colorimetric Ca^2+ and Pi assay kits (Cat numbers K380 and K410, respectively) as indicated by the manufacturer (BioVision, Milpitas, CA).
For in vivo studies, five mice/group were used. […] Statistical analyses were performed using GraphPad Prism and Microsoft excel. […] The results are presented as the means ± SD. […] For carrying out multiple group comparisons (all in vivo experiments), one‐way analysis of variance (ANOVA) was performed. When ANOVA indicated unequal means, Tukey's honestly significant difference (HSD) posthoc test was performed to determine which means were different to the level of significance. Statistical significance was considered when P value was less than 0.05 (P < 0.05).
Sera were collected at sacrifice (24 h after last injection) and levels of Ca^2+ and Pi were measured using specific colorimetric assays. (A) Serum Ca^2+ levels. (B) Serum Pi levels. The statistical designation directly listed on the top of each bar indicates the significance level in comparison to vehicle. […] The data in all graph are expressed as the means ± SD. […]

EC50 for β‐arrestin recruitment lower than that of teriparatide (PTHR1): 1.6 fold
EC50 ([1]; 0.01–100 nmol/L, 40 min at 37°C, 0.5 mmol/L IBMX, cAMP competitive ELISA, mean ± SD, three independent experiments, p = 0.02 between analogs, read-out: EC50 for cAMP formation): 0.3 ± 0.03 nM
Decrease in EC50 value for cAMP formation compared to teriparatide ([1]; abaloparatide vs teriparatide, p = 0.02): 2.3 fold
Compound: CC[C@H](C)[C@H](NC(=O)[C@H](CO)NC(=O)[C@H](CCCCN)NC(=O)CNC(=O)[C@H](CCCCN)NC(=O)[C@H](CC(=O)O)NC(=O)[C@H](Cc1cnc[nH]1)NC(=O)[C@H](CC(C)C)NC(=O)[C@H](CC(C)C)NC(=O)[C@H](CCC(N)=O)NC(=O)[C@H](Cc1cnc[nH]1)NC(=O)[C@H](CCC(=O)O)NC(=O)[C@H](CO)NC(=O)[C@@H](NC(=O)[C@H](C)N)C(C)C)C(=O)N[C@@H](CCC(N)=O)C(=O)N[C@@H](CC(=O)O)C(=O)N[C@@H](CC(C)C)C(=O)N[C@@H](CCCNC(=N)N)C(=O)N[C@@H](CCCNC(=N)N)C(=O)N[C@@H](CCCNC(=N)N)C(=O)N[C@@H](CCC(=O)O)C(=O)N[C@@H](CC(C)C)C(=O)N[C@@H](CC(C)C)C(=O)N[C@@H](CCC(=O)O)C(=O)N[C@@H](CCCCN)C(=O)N[C@@H](CC(C)C)C(=O)N[C@@H](CC(C)C)C(=O)NC(C)(C)C(=O)N[C@@H](CCCCN)C(=O)N[C@@H](CC(C)C)C(=O)N[C@@H](Cc1cnc[nH]1)C(=O)N[C@H](C(=O)N[C@@H](C)C(N)=O)[C@@H](C)O [abaloparatide]
Patients with hypercalcemia (patients; human, in vivo): 3.4%

Compound: PTH: PTH as administered in cited studies; context points to the amino‐terminal fragment PTH1‐34 (SVSEIQLMHNLGKHLNSMERVEWLRKKLQDVHNF; Parathyroid hormone; UniProt P01270 32-65, looked up, fragment)
Increase in BMD in spine and femur versus bisphosphonates ([2]; men and women with osteoporosis): more efficiently than treatment with bisphosphonates
Decrease in risk of vertebral and nonvertebral fractures [2]: more than 50%
RANKL gene expression (RANKL gene expression): larger RANKL gene expression in vivo and in vitro

Elevation in serum Pi [3]: 50%
Compound: CC[C@H](C)[C@H](NC(=O)[C@H](CCC(=O)O)NC(=O)[C@H](CO)NC(=O)[C@@H](NC(=O)[C@@H](N)CO)C(C)C)C(=O)N[C@@H](CCC(N)=O)C(=O)N[C@@H](CC(C)C)C(=O)N[C@@H](CCSC)C(=O)N[C@@H](Cc1cnc[nH]1)C(=O)N[C@@H](CC(N)=O)C(=O)N[C@@H](CC(C)C)C(=O)NCC(=O)N[C@@H](CCCCN)C(=O)N[C@@H](Cc1cnc[nH]1)C(=O)N[C@@H](CC(C)C)C(=O)N[C@@H](CC(N)=O)C(=O)N[C@@H](CO)C(=O)N[C@@H](CCSC)C(=O)N[C@@H](CCC(=O)O)C(=O)N[C@@H](CCCN=C(N)N)C(=O)N[C@H](C(=O)N[C@@H](CCC(=O)O)C(=O)N[C@@H](Cc1c[nH]c2ccccc12)C(=O)N[C@@H](CC(C)C)C(=O)N[C@@H](CCCN=C(N)N)C(=O)N[C@@H](CCCCN)C(=O)N[C@@H](CCCCN)C(=O)N[C@@H](CC(C)C)C(=O)N[C@@H](CCC(N)=O)C(=O)N[C@@H](CC(=O)O)C(=O)N[C@H](C(=O)N[C@@H](Cc1cnc[nH]1)C(=O)N[C@@H](CC(N)=O)C(=O)N[C@@H](Cc1ccccc1)C(=O)O)C(C)C)C(C)C [teriparatide]
Patients with hypercalcemia (patients; transient and infrequent event, ref Miller et al. 2018): 6.4%
